Experimental findings from PubChem BioAssay (NCI) are described below.

Each structure is given as a SMILES string.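 Compound exposure: 48 hours, 5 concentrations, 96-well plates. TGI is the concentration that stops growth completely.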 A value given as a limit tells only on which side of the number the result lay.

Holding throughout (test): NCI-60 cell line screen, 48 h
Assay [1] deals with NCI-H226 lung.
In assay [2] the test system is MCF7 breast.
Assay [3] concerns PC-3 prostate.
Assay [4] concerns OVCAR-3 ovarian.
For assay [5], the system named is OVCAR-4 ovarian.
The subject of assay [6] is ACHN renal.
Assay [7] concerns SF-295 CNS.
Assay [8] concerns SNB-19 CNS.
Assay [9] relates to NCI/ADR-RES ovarian.
Assay [10] relates to NCI-H23 lung.
Assay [11] relates to M14 melanoma.
Assay [12] has as its system MDA-MB-435.
The subject of assay [13] is SF-268 CNS.
Assay [14] concerns HT29 colon.
The test system of assay [15] is HCT-15 colon.
In assay [16] the test system is SF-539 CNS.

Consider `C/C(=N/NC(=S)N1CCCCCC1)c1cccc(/C(C)=N\NC(=S)N2CCCCCC2)n1`, for which the TGI in assay [1] amounted to 3.31 µM; in assay [2], 3.46 µM; in assay [3] it was 5.2 µM; in assay [4], 2.59 µM; in [5], 2.44 µM; in assay [6], 2.87 µM. For the same compound, the TGI was 4.12 µM in assay [7]; 9.43 µM in assay [8]; 3.86 µM in [9]; 5.44 µM in assay [10]; 3.53 µM in assay [11]; 3.36 µM in [12]. For the same compound, the TGI in [13] came to 9.46 µM; in [14], 4.65 µM; in assay [15], 5.36 µM; in assay [16] it was 3.15 µM.

Take `N#C/C=C(/NC(=O)Nc1ccccc1)N1CCCC1`: the TGI was above 65.9 µM in assay [1]; above 55 µM in [2]; above 54.5 µM in assay [3]; above 100 µM in assay [4]; above 100 µM in assay [5]; above 57.3 µM in assay [6]. The TGI is above 43.8 µM in assay [7]; above 45.6 µM in assay [8]; above 61.5 µM in assay [9]; above 64.7 µM in assay [10]; above 100 µM in [11]; above 100 µM in [12]. Further, the TGI is above 46.4 µM in [13], above 100 µM in assay [14], above 100 µM in assay [15] and above 65.7 µM in assay [16].

With `COc1cc(/C=C2\CC3C4CC=C5C[C@@H](O)CC[C@]5(C)C4CC[C@]3(C)\C2=N\O)cc(OC)c1OC` (stereo not given in full), the TGI in assay [1] came out at 60.9 µM; in assay [2], 15 µM; in assay [3], 37.8 µM; in assay [4], 61.4 µM; in assay [5] it was 68.8 µM; in [6], 17.6 µM. Further, the TGI in assay [7] is 22 µM; in assay [8], above 100 µM; in assay [9], 74.3 µM; in assay [10] it was 55.5 µM; in [11], 27.6 µM; in assay [12], above 100 µM. Moreover, the TGI in assay [13] is above 100 µM; in assay [14] it was above 100 µM; in assay [15], 38.5 µM; in assay [16] it was 34.7 µM.

Consider `O=S(=O)(O)c1cc(O)c(N=NC2S(=O)(=O)OCCOS2(=O)=O)c2ccccc12`, for which the TGI in assay [1], in assay [2], in assay [3], in assay [4], in assay [5] and in assay [6] was above 100 µM each time. Moreover, the TGI in assay [7], in assay [8], in assay [9], in assay [10], in assay [11] and in [12] was above 100 µM each time. The TGI in assay [13], in [14], in [15] and in assay [16] was above 100 µM each time.

Turning to `COC(=O)/C(=C(/C)c1ccco1)P(=O)(OC)OC`, the TGI in assay [1], in assay [2], in assay [3], in assay [4], in assay [5] and in [6] was above 100 µM in each case. The TGI in assay [7], in assay [8], in [9], in assay [10], in assay [11] and in assay [12] was above 100 µM throughout. For the same compound, the TGI in assay [13], in assay [14], in assay [15] and in assay [16] was above 100 µM each time.

In the case of `Nc1nc(N)c2cc(-c3cc4ccccc4[nH]3)ccc2n1`, the TGI was 93.7 µM in assay [1]; 33.6 µM in [2]; above 100 µM in assay [3]; above 100 µM in assay [4]; 63.5 µM in [5]; 33.3 µM in assay [6]. Also, the TGI in assay [7] is 90.2 µM; in assay [8] it was above 100 µM; in [9], above 100 µM; in assay [10], above 100 µM; in assay [11] it was 34.4 µM; in [12] it was 38.6 µM. Also, the TGI in assay [13] amounted to 95.5 µM; in [14], 38.9 µM; in assay [15], 55 µM; in assay [16], 51.7 µM.

In the case of `Cc1ccc(S(=O)(=O)N(CC(O)COc2ccccc2)c2c(F)c(F)c(F)c(F)c2F)cc1` (stereo not given), the TGI in assay [1] amounted to 42.7 µM; in assay [2], 23.2 µM; in [3], 29.2 µM; in [4], 38.9 µM; in [5], 29.2 µM; in assay [6], 32 µM. Besides, the TGI in assay [7] is 37.4 µM; in assay [8], 43.3 µM; in assay [9], 35.1 µM; in [10], 29.6 µM; in assay [11], 41 µM; in [12] it was 34.5 µM. For the same compound, the TGI was determined as 30.9 µM in [13], 33 µM in assay [14], 33 µM in assay [15] and 34.4 µM in assay [16].

For the compound `CCN(CC)C1=Nc2ccccc2-n2ccnc2C1`, the TGI in [1], in assay [2], in assay [3], in assay [4], in assay [5] and in [6] was above 100 µM throughout. Further, the TGI in assay [7], in [8], in [9], in assay [10], in [11] and in assay [12] was above 100 µM throughout. Besides, the TGI in [13], in assay [14], in [15] and in assay [16] was above 100 µM throughout.

With `O=C1C(NS(=O)(=O)c2ccccc2)=C(n2ccnc2)C(=O)c2ccccc21`, the TGI in assay [1], in [2], in [3], in assay [4], in assay [5] and in assay [6] was above 100 µM throughout. Moreover, the TGI in assay [7], in assay [8], in assay [9], in [10], in [11] and in [12] was above 100 µM each time. Also, the TGI in assay [13], in assay [14], in [15] and in assay [16] was above 100 µM each time.

With `COc1cc2ncnc(Nc3cccc(Br)c3)c2cc1OC`, the TGI in assay [1] was 18.5 µM; in assay [2] it was above 52 µM; in assay [3], above 37.2 µM; in [4] it was 45.4 µM; in [5], above 49.8 µM; in [6], above 100 µM. Also, the TGI in assay [7] is 14.3 µM; in assay [8] it was above 77.4 µM; in assay [9] it was 23.9 µM; in assay [10], 28.7 µM; in [11], 20.6 µM; in assay [12], 49.7 µM. The TGI was above 89.6 µM in assay [13], 18.8 µM in assay [14], 22.7 µM in [15] and 17 µM in [16].
